In paper PMC4710893 (ACS Combinatorial Science, 2015):
Values joined by “and” are separate entries in the source; they are usually repeats but may differ in a detail not shown here. Identical values can stand only once.

What was measured:
K-Ras G12V [1] = target: T1, K-Ras G12V (Homo sapiens, UniProt P01116, G12V); test: FA-based competition assay with DCAI; format: binding
K-Ras = details: read-out: KD, DCAI binding to K-Ras; cited from earlier work
K-Ras G12V [2] = target: T1, K-Ras G12V; test: Fluorescence anisotropy; format: binding
[3] = test system: H441 human lung cancer cells; test: MTT cell viability assay, H441; format: cell-based; details: 0-40 μM
[4] = test system: H1299 lung cancer cell line; test: MTT cell viability assay, H1299; format: cell-based, human; details: H1299 (Q61K N-Ras), 24 h
H1299 cells [5] = test: Cellular uptake by flow cytometry; format: cell-based, human
H1299 cells [6] = test: Live-cell confocal microscopy of internalization; format: cell-based, human; details: H1299, 5 μM FITC-labeled peptide, 2 h
p-MEK = test: Immunoblot of MEK phosphorylation in H1299 cells; format: cell-based, human; details: H1299, 0-18 μM for 12 h, EGF 50 ng/mL 10 min
p-Akt at Thr308 = test: Immunoblot of Akt phosphorylation in H1299 cells; format: cell-based, human; details: H1299, 0-18 μM for 12 h, EGF 50 ng/mL 10 min

Compound	IC50 (K-Ras G12V [1]) [µM]	Kd (K-Ras)	lower affinity than peptide 49 (K-Ras G12V [2]; K-Ras G12V, peptide lacking the DCAI moiety) [fold]	Kd (K-Ras G12V [2]; read-out: KDapp, FA, FITC-labeled peptide 100 nM, K-Ras G12V as purified from E. coli, mixture of GTP- and GDP-bound forms) [µM]	reduction in cell viability [3]	LD50 [4] [µM]	cell entry efficiency, fold lower than cFΦR4 (H1299 cells [5]; H1299, 5 μM FITC-labeled peptide, 2 h) [fold]	cell permeability (H1299 cells [5]; tested for cellular uptake)	internalization / intracellular distribution (H1299 cells [6])	reduction of EGF-induced p-MEK level (p-MEK)	reduction of EGF-induced p-Akt level (p-Akt at Thr308)
Cc1[nH]c2cc(Cl)cc(Cl)c2c1CCN [DCAI, 4,6-dichloro-2-methyl-3-aminoethylindole]	840 ± 220	1100 µM and ~1100 µM	–	–	–	–	–	–	–	–	–
bicyclo [Tm-Ala-leu-Phe-Arg-asn-Pra-Ile-Asp-Lys-Phe-Nal-Arg-Arg-Arg-Arg-Dap]-Lys [peptide 54]	–	–	~80	17 ± 11	significant reduction in cell viability only at the highest inhibitor concentration tested	> 40	~3	readily cell permeable	largely similar intracellular distribution	no effect	no effect
